Results on one molecule are retold here after patent US20250340519A1, “RADIOLABELLED COMPOUND” (OXFORD UNIVERSITY INNOVATION LIMITED, priority 2018, published 2025).

One data set has as its system PANC-1 cells. The data set can be described thus: Cell uptake of [18F]olaparib in PANC-1 cells. In kind it is cell-based, human. As to conditions: radiation dose-dependent. The protocol:
PARP1 levels in a limited selection of PDAC cell lines were determined using Western blot and confirmed by immunofluorescence microscopy. […] Uptake was reported as a percentage of the total amount added, per mg of total protein recovered from the isolated cells, determined by BCA assay. Specificity of uptake was determined by blocking olaparib binding sites using an excess of cold, unlabeled olaparib, or other PARP inhibitors (rucaparib, talazoparib).
Cell uptake of ^18F-olaparib in Panc-1, MiaPaCa-2 and Capan-1 cells was determined as previously described (Cornelissen, B., Hu, M., McLarty, K., Costantini, D. & Reilly, R. M.
Cellular penetration and nuclear importation properties of 111In-labeled and 123I-labeled HIV-1 tat peptide immunoconjugates in BT-474 human breast cancer cells. Nucl Med Biol 34, 37-46, 2007; Thurber, G. M., Reiner, T., Yang, K. S., Kohler, R. H. & Weissleder, R. Effect of small-molecule modification on single-cell pharmacokinetics of PARP inhibitors. Molecular cancer therapeutics 13, 986-995, 2014; Reiner, T., et al. Imaging therapeutic PARP inhibition in vivo through bioorthogonally developed companion imaging agents. Neoplasia 14, 169-177, 2012). Aliquots of Panc-1, MiaPaca-2, and Capan-1 cells (1.5×10^5 cells/well) were seeded in 24-well plates in warm cell culture medium (500 μL) and the cells were allowed to adhere overnight. Cells were irradiated (10 Gy; dose rate 0.8 Gy/min) or sham-irradiated and then returned to an incubator (37° C., 5% CO2) for 2 h. […] In the blocking groups, non-radioactive olaparib, talazoparib, or rucaparib were also added in increasing concentrations (10 pM-10 μM. After 30 or 60 minutes, the cell culture medium was removed and combined with two washes (500 μL) of cell culture medium. The remaining monolayer of cells was then lysed with 0.1 M sodium hydroxide for 20 minutes at room temperature. The amount of radioactivity contained within the cell culture medium and the cell lysate fractions was measured using a gamma counter. Protein levels from parallel plates were quantified using a Pierce BCA protein assay kit (Thermo Scientific) according to the manufacturer's recommendations and bovine serum albumin was used as the protein standard. Cell uptake levels of [^18F]-olaparib were normalised to percent of the total added radioactivity per milligram protein. […] IC50 values were calculated using GraphPad Prism software (GraphPad Software, San Diego, CA, USA). […]
Aliquots of Panc-1, MiaPaca-2, and Capan-1 cells (7.5×10^4 cells/well) were seeded in 24-well plates in warm cell culture medium (500 μL). […] The amount of radioactivity contained within the cell culture medium and the cell lysate fractions was measured using a gamma counter. […]

The test system of data set [1] is U87MG and U251MG xenografts. The data set can be described thus: 18F-olaparib biodistribution in U87MG and U251MG tumour xenograft mouse models. It is filed as in vivo, Balb/c nude mice. As to conditions: both U87MG and U251MG tumours, 60-120 min p.i. As for the experimental part: U87MG and U251MG xenografts were generated in Balb/c nude mice. The xenograft models were administered various doses (0.5, 1.0, 4.0, and 8.0 μg) of ^18F-olaparib by tail vein injection. At 60-120 min post-injection, mice were sacrificed and organs were collected for biodistribution; see FIGS. 27(a) and (b), and FIG. 28(a). […] We predicted that the uptake for the U251MG xenografts would be greater, but in vivo there is no significant difference between the % ID/g for the U251MG or U87MG xenograft tumours.
A 20-fold excess of cold olaparib was injected via tail vein 60 m prior to 1 μg of ^18F-olaparib via tail vein. The mice were sacrificed at 60-120 min post-injection and organs were harvested.

Turning to `O=C(c1cc(Cc2n[nH]c(=O)c3ccccc23)ccc1[18F])N1CCN(C(=O)C2CC2)CC1` [[^18F]olaparib], the “[^18F]olaparib uptake after gamma-irradiation” value in the data set on PANC-1 cells is reported as “increased”. Moreover, the “decrease of tumour % ID/g at 8.0 μg compared to 1.0 μg tracer” value in data set [1] is listed as over 50%.
